The source of these data is patent publication US20250320245A1, “Nucleoside Analogues for the Treatment of Parasitic Infections” (Universiteit Antwerpen, priority 2021, published 2025).

Data set [1] can be described thus: Cytotoxicity assay on MRC-5 fibroblasts. Type of data set: cell-based. The settings on record: human. Here is the method: MRC-5SV2 (Sigma-Aldrich/ECACC, catalogue number 84100401) human embryonic lung fibroblasts were used to perform cytotoxicity assays. The cells were cultured in minimum essential medium (MEM, Life Technologies) with Earle's salt medium, supplemented with L-glutamine, NaHCO3 and 5% inactivated fetal bovine serum (iFBS). Cells were seeded at 1.5×10^4 cells/well and 4-fold compound dilutions were immediately added with a highest in-test concentration of 64 μM. After a 3-day incubation, resazurin (Sigma-Aldrich) was added to each well (final concentration of 10 μg mL^−1), and cell viability was assessed by fluorescent reading (Tecan®, GENios) following 4 h of incubation with resazurin (37° C./5% CO2). The results were expressed as percentage reduction in cell growth/viability compared to control wells and the 50% cytotoxic concentration (CC50) was calculated for each of the compounds.

Data set [2] has as its system T. brucei (Squib 427). Briefly: In vitro drug susceptibility assay, T. brucei. Type of data set: cell-based. The following applies: Trypanosoma brucei. Here is the method: (§1) Drug susceptibility assays with T. brucei (Squib 427), T. evansi type A (RoTat 1.2) and T. equiperdum (BoTat 1.1) were performed under similar conditions. Parasites were cultured in HMI-9 culture medium supplemented with 10% iFBS. To determine in vitro susceptibility of the abovementioned Trypanosoma species, 10 concentrations of a 4-fold dilution series (with a highest in-test concentration of 64 μM) was prepared for each compound, and parasites were seeded at 1.5×10^4 parasite/well. After 72 h of drug exposure at 37° C. with 5% CO2, resazurin was added to the wells (final concentration of 10 μg mL^−1), followed by another incubation for 24 h. Cell viability was determined by fluorescence reading (Tecan®, GENios) and 50% inhibitory concentration (IC50) was calculated for each compound.

Data set [3] has as its system T. vivax (ILRAD700). As to the kind of experiment: Ex vivo drug susceptibility assay, T. vivax. The data set is classed as cell-based. The following applies: Trypanosoma vivax. An excerpt: (§2) T. congolense (IL3000), the isometamidium (ISM)-resistant T. congolense strain (MSORO M7H), T. evansi type A (RoTat 1.2), T. evansi type B (KETRI 2479) and T. equiperdum (BoTat 1.1) used for in vitro, ex vivo and in vivo experiments were kindly provided by the Institute of Tropical Medicine (ITM), and T. vivax (ILRAD700) and T. congolense (TC13) used for ex vivo and in vivo experiments, were kindly provided by the University of Brussel (VUB).
(§3) Ex Vivo Drug Susceptibility Assays for T. vivax, T. congolense ISM-Resistant, and T. evansi Type B
(§4) For Trypanosoma species/strains that were not adapted to culture conditions, donor mice were infected intraperitoneally with 10^4 parasites. Around day 5-6 post infection, blood was collected via cardiac puncture and parasites were isolated using mini-anion exchange centrifugation technique (mAECT). 4-fold dilutions of the test compounds were prepared with the highest concentration of 64 μM, and parasites were seeded at 1×10^5 parasite/well. Following 24 h of drug exposure at 37° C. and 5% CO2, resazurin was added to the wells and plates were incubated (37° C./5% CO2) for another 24 h. Cell viability was determined by fluorescence reading (Tecan®, GENios), and IC50 values were calculated by non-linear regression (dose-response curve with variable slope) using Prism 8.0 (GraphPad Software Inc., San Diego, CA, USA).

Data set [4] relates to T. congolense (IL3000). As to the kind of experiment: In vitro drug susceptibility assay, T. congolense. Type of data set: cell-based. The following applies: Trypanosoma congolense; Table 2; two independent repeat experiments. Here is the method:
Drug susceptibility assays for T. congolense (IL3000) were performed with parasites cultured in HMI-9 medium supplemented with 15% horse serum. Parasites were seeded at a concentration of 1.5×10^4 parasite/well and exposed to a 4-fold compound dilution series starting at a highest in-test concentration of 64 μM. Plates were incubated for 72 h at 34° C. and 5% CO2, followed by the addition of resazurin (Sigma, Aldrich) and a further incubation period of 24 h. Cell viability was quantified by fluorescence reading (Tecan®, GENios), and IC50 values were calculated by non-linear regression (dose-response curve with variable slope) using Prism 8.0 (GraphPad Software Inc., San Diego, CA, USA).

Data set [5] deals with isometamidium (ISM)-resistant T. congolense strain (MSORO M7H). As to the kind of experiment: Ex vivo drug susceptibility assay, T. congolense ISM-resistant. The following applies: Trypanosoma congolense; Table 2; two independent repeat experiments; read-out: IC50 T. congolense ISM-R. The data set is classed as cell-based.
Description: as §2, §3, §4

For data set [6], the system named is T. evansi type A (RoTat 1.2). As to the kind of experiment: In vitro drug susceptibility assay, T. evansi type A. Type of data set: cell-based. The following applies: Table 2; two independent repeat experiments; read-out: IC50 T. evansi (type A). As for the experimental part: as §1
Data set [7] concerns T. evansi type B (KETRI 2479). Briefly: Ex vivo drug susceptibility assay, T. evansi type B. The settings on record: Table 2; two independent repeat experiments. Type of data set: cell-based.
Description: as §2, §3, §4

The test system of data set [8] is T. equiperdum (BoTat 1.1). Briefly: In vitro drug susceptibility assay, T. equiperdum. Type of data set: cell-based. The following applies: Trypanosoma equiperdum; Table 2; two independent repeat experiments. Here is the method:
as §1

Data set [9] is described as follows: In vitro metabolic stability, mouse liver S9. The data set is classed as in vitro ADME. As for the experimental part:
The metabolic stability of selected compounds was determined in the presence of mice, horse, and bovine liver microsome fractions (S9) through phase-I (CYP450 and NADPH dependent enzymes) and Phase-II (UGT enzymes) metabolisms. Samples were collected after 0, 15, 30, and 60 minutes of incubation and the corresponding loss of parent compound was determined via liquid chromatography (UPLC) (Waters Aquity™) coupled with tandem quadrupole mass spectrometry (MS^2) (Waters Xevo™), equipped with an electrospray ionization (ESI) interface and operated in multiple reaction monitoring (MRM) mode.

Data set [10] has as its system T. B. brucei AnTAR1.1 PPYRE9. As to the kind of experiment: Bioluminescent T. brucei late curative mouse model. The settings on record: single-dose i.p. 50 mg kg−1. Type of data set: in vivo, female Swiss mice. Here is the method:
Female Swiss mice (BW˜20-24 g; Janvier Labs, France) were randomly allocated to group of 3 animals and were intraperitoneally infected with 2×10^3 T. B. brucei AnTAR1.1 PPYRE9 derived from a heavily infected donor mouse. FH15967 was formulated in 10% (v/v) polyethylene glycol 400 (PEG400) in water at 2 mg mL^−1 and was administrated to separate groups as single dose s.i.d. i.p. at 50 mg kg-1 (n=3), and b.i.d i.p. at 50 mg kg^−1 (n=3). The reference drug diminazene aceturate was formulated in PBS at 2.5 mg mL^−1 and administrated s.i.d i.p. as a single dose at 10 mg kg^−1. Treatment was initiated at 3 dpi when parasitemia reached 10^6 parasites mL^−1, and parasitemia was microscopically determined via Neubaur improved haemocytometer on a daily basis until 7 dpi. Bioluminescent images were obtained at 3, 5 and 7 dpi to determine parasite burdens in the body. Accordingly, D-luciferin was injected i.p. at 15 mg kg^−1, animals were anaesthetised using isoflurane, and luminescent signals were acquired from both the dorsal and ventral sides of the animals. […] BLI images that obtained from IVIS Spectrum In vivo Imaging System (Perkin Elmer) were quantified with Living Image V4.3.1 SoftWoRx Suite 2.0 for microscopy, then processing using the Fiji software.

Like-named read-outs stand apart in the source and are kept apart here. Some results are limits rather than exact numbers.

The CC50 is the concentration that lowers cell viability or growth by half. The term IC50 denotes the concentration that gives 50% inhibition.

Regarding `OC[C@H]1O[C@@H](n2ccc3c(Sc4ccccc4)ncnc32)[C@H](O)[C@@H]1O` [FH15967, 4-S-phenyl-N7-(β-D-ribofuranosyl)pyrrolo[2,3-d]pyrimidine], the 50% cytotoxic concentration (CC50) at 3 day in data set [1] (MRC-5SV2 embryonic lung fibroblasts, Table 1, mean and SEM of two independent experiments, highest concentration 64 μM, read-out: MRC-5 off-target cytotoxicity (CC50)) is above 64000 nM. Besides, in data set [1] (MRC-5SV2 human embryonic lung fibroblasts, Table 2, two independent repeat experiments), the half-inhibitory concentration (IC50) at 3 day is above 64000 nM. Moreover, the IC50 is 31 ± 8 nM in data set [2] (Table 1, mean and SEM of two independent experiments, read-out: T. brucei in vitro activity (IC50)); 31 ± 8 nM in data set [2] (Table 2, two independent repeat experiments, read-out: IC50 T. brucei); 44 ± 5 nM in [3] (Table 1, mean and SEM of two independent experiments, read-out: T. vivax in vitro activity (IC50)); 44 ± 5 nM in [3] (Table 2, two independent repeat experiments, read-out: IC50 T. vivax); 100 ± 20 nM in data set [4]; 180 ± 9 nM in [5]. The values for the IC50 in data set [6], in [7] and in [8] were 33 ± 6 nM, 18 ± 6 nM and 26 ± 5 nM, respectively. The “metabolic stability in mouse liver microsomes” value in [9] (mouse liver S9, phase-I, without 1-ABT) is “phase-I metabolic degradation”. Besides, the “effect of 1-aminobenzotriazole (1-ABT) on phase-I metabolic decay” value in data set [9] (mouse microsome pre-incubated with 1-ABT) was “adequately block phase-I metabolic decay”. Besides, in data set [10] (even faster than the diminazene aceturate reference group), the “parasitemia decline by bioluminescent imaging and signal quantification” value is “rapid parasitemia decline”. Moreover, the blood parasitemia result in data set [10] (until day 7 post infection) is reported as “negative blood parasitemia”.
